Converted amounts (≈) assume the structure as drawn. “And” between values parts separate entries of the source, which are not always exact repeats. Equal values may be shown once. Read-outs that look alike come from different tables or passages of the source.
How the values were obtained:
MCF7 cell line = assay: SRB cytotoxicity assay, MCF7 breast cancer cell line; settings: Homo sapiens, MCF7, 72 h, read-out: Cytotoxicity IC50 value, MCF7 cell line
Experimental: (§1) All reagents and chemicals of analytical grade were obtained from Sigma (Dorset, UK); unless stated otherwise. All chemicals, reagents and solvents (of analytical grade) were used directly without further purification. MCF7 cell line ATCC® HTB-22™, T47D cell line ATCC® HTB-133™, K562 cell line ATCC® CCL-243™, Panc1 cell line ATCC® CRL-1469™. A375.S2 cell line ATCC® CRL-1872™, A549 cell line ATCC® CCL-185™, HELA cell line ATCC® CCL-2™ were cultured in Dulbecco’s modified eagle’s medium (DMEM). (DMEM) containing foetal bovine serum (FBS) (Bio Whittaker, Verviers, Belgium), 4-(2-hydroxyethyl)-1-piperazine ethane sulfonic acid (HEPES) Buffer, L-glutamine, gentamicin, penicillin, and streptomycin sulphate (Sigma, St. Luis, MO, USA), trypsin, trypan blue, Ciprofloxacin HCl from Aarti drugs Ltd/India, was a kind gift from Pharma International Company- Amman; Fluconazole from Neopharma, United Arab Emirates, a kind gift from Pharmaceutical Research Unit, Amman; Trypon soya agar (TSA), trypon soya broth (TSB), sabouraud dextrose agar (SDA) were obtained from Liofilchem (Italy) or Oxoid LTD (Basingstoke, England), they were reconstituted and sterilized by autoclave at 121 °C for 15 min.
(§2) The cytotoxicity measurements were determined using Sulforhodamine B (SRB) colorimetric assay for cytotoxicity screening. The mechanism of reduction of cell viability was adopted as described previously (Arabiyat et al., 2016a,b; 2017; Alabsi et al., 2018; Jumah, 2018; AlShahrabi et al., 2020). Human periodontal ligament fibroblasts (PDL) are a primary normal cell culture for verification of selective cytotoxicity. […] Selectivity ratio as indicative factor of the safety of compounds was calculated by dividing IC50 of tested compound on normal fibroblasts by IC50 of the same compound on specific pathological cell line (Hoffman et al., 2011).

T47D cell line = assay: cells; settings: Homo sapiens, T47D, 72 h, read-out: Cytotoxicity IC50 value, T47D cell line
Experimental: as §1, §2

[1] = system: Staphylococcus aureus (S. aureus) ATCC 6538; assay: Quantitative antimicrobial assessment (MIC) against S. aureus; format: cell-based; settings: for Antibacterial activity (in words): esters vs free acid, Gram positive strain context; for MIC: Staphylococcus aureus, ATCC6538, Gram positive, ATCC 6538; for MIC potency compared with ciprofloxacin, S. aureus: in words
A549 cell line = assay: SRB cytotoxicity assay, A549 lung cancer cell line; settings: Homo sapiens, A549, 72 h, read-out: Cytotoxicity IC50 value, A549 cell line
Experimental: as §1, §2

K562 cell line = assay: SRB cytotoxicity assay, K562 leukaemia cell line; settings: Homo sapiens, K562, 72 h
Experimental: as §1, §2

PANC 1 cell line = assay: SRB cytotoxicity assay, PANC 1 pancreatic cancer cell line; settings: Homo sapiens, PANC-1, 72 h, read-out: Cytotoxicity IC50 value, PANC 1 cell line
Experimental: as §1, §2

A375.S2 cell line = assay: SRB cytotoxicity assay, A375.S2 melanoma cell line; settings: Homo sapiens, A375-S2, 72 h, read-out: Cytotoxicity IC50 value, A375.S2 cell line
Experimental: as §1, §2

HELA cell line = assay: SRB cytotoxicity assay, HELA cervical cancer cell line; settings: Homo sapiens, HeLa, 72 h
Experimental: as §1, §2

PDL Fibroblasts = assay: SRB cytotoxicity on normal periodontal ligament fibroblasts, selective cytotoxicity; format: cell-based, Human; settings: for IC50: Homo sapiens, Fibroblast, normal fibroblasts, SRB, 72 h, mean ± SD; for Selectivity index SI (A375.S2): IC50 on PDL fibroblasts divided by IC50 on A375.S2; for Selectivity index SI (K562): IC50 on PDL fibroblasts divided by IC50 on K562
Experimental: as §2

[2] = read-out: Cytotoxicity IC50 value, K562 cell line, SRB, 72 h, 0.1-200 μg/mL range, mean ± SD, NI = lack of cytotoxicity in range
[3] = read-out: Cytotoxicity IC50 value, HELA cell line, SRB, 72 h, 0.1-200 μg/mL range, mean ± SD, value in brackets
[4] = read-out: Cytotoxicity IC50 value, HELA cell line, SRB, 72 h, 0.1-200 μg/mL range, mean ± SD, NI = lack of cytotoxicity in range
[5] = 0.1-200 μg/mL range, NI = lack of cytotoxicity in range
[6] = read-out: Cytotoxicity IC50 value, K562 cell line, SRB, 72 h, 0.1-200 μg/mL range, mean ± SD, value in brackets

Structure (SMILES) | IC50 (MCF7 cell line) | IC50 (T47D cell line) | Antibacterial activity (in words) [1] | IC50 (A549 cell line) | IC50 (K562 cell line; [2]) | IC50 (PANC 1 cell line) | IC50 (A375.S2 cell line) | IC50 (HELA cell line; [3]) [µg/mL] | IC50 (HELA cell line; [4]) | IC50 (PDL Fibroblasts; [5]) | IC50 (PDL Fibroblasts; value in brackets) [µg/mL] | Selectivity index SI (A375.S2) (PDL Fibroblasts) | IC50 (K562 cell line; [6]) [µg/mL] | Selectivity index SI (K562) (PDL Fibroblasts) | MIC [1] [µM] | MIC potency compared with ciprofloxacin, S. aureus [1] | Selectivity index SI (PANC 1) (PDL Fibroblasts; IC50 on PDL fibroblasts divided by IC50 on PANC 1)
O=C(O)c1cn(C2CC2)c2c([N+](=O)[O-])c(Cl)c(F)cc2c1=O [1A] | 3.32 µM and 1.17 µg/mL | > 200 µg/mL | incomparably appreciable activity | 57.9 µM and 20.4 µg/mL | > 200 µg/mL | 59.1 µM and 21 µg/mL | 10 µM and 3.52 µg/mL | 7.02 | 19.8 ± 1.48 µM | – | – | – | – | – | – | – | –
CCOC(=O)c1cn(C2CC2)c2c([N+](=O)[O-])c(Nc3ccccc3OC)c(F)cc2c1=O [2A] | – | – | lacked antibacterial activity | – | – | – | – | – | – | – | – | – | – | – | – | – | –
CCOC(=O)c1cn(C2CC2)c2c([N+](=O)[O-])c(Nc3ccc(F)cc3)c(F)cc2c1=O [2H] | > 200 µg/mL | 833 µM and 344 µg/mL | lacked antibacterial activity | 447 µM and 200 µg/mL | 806 ± 59.2 µM | 485 µM and 208 µg/mL | 271 µM and 121 µg/mL | 647 | 1510 ± 68.2 µM | 560 ± 87.5 µM | 231 | 2.07 | 346 | – | – | – | –
COc1cccc(Nc2c(F)cc3c(=O)c(C(=O)O)cn(C4CC4)c3c2N)c1 [4b, 8-amino-1-cyclopropyl-6-fluoro-7-(3-methoxy-phenylamino)-4-oxo-1,4-dihydro-quinoline-3-carboxylic acid] | 177 µM and 67.7 µg/mL | 149 µM and 57.2 µg/mL | – | 229 µM and 87.6 µg/mL | 17 ± 2.57 µM | 155 µM and 59.2 µg/mL | 120 µM and 46 µg/mL | – | – | 276 ± 20.2 µM | 106 | – | 6.5 | 16.25 | 0.024 (≈ 9.2 ng/mL) | – | –
COc1ccc(Nc2c(F)cc3c(=O)c(C(=O)O)cn(C4CC4)c3c2N)c(OC)c1 [4g, 8-amino-1-cyclopropyl-7-(2,4-dimethoxy-phenylamino)-6-fluoro-4-oxo-1,4-dihydro-quinoline-3-carboxylic acid] | 317 µM and 137 µg/mL | 1.01 mM and 435 µg/mL | – | 709 µM and 306 µg/mL | > 200 µg/mL | 310 µM and 128 µg/mL | 807 µM and 348 µg/mL | 120 | 277 ± 39 µM | > 200 µg/mL | – | – | – | – | 0.004 (≈ 1.65 ng/mL) | significantly more potent than ciprofloxacin | –
COc1ccccc1-n1nnc2c3c(cc(F)c21)c(=O)c(C(=O)O)cn3C1CC1 [5a, 9-cyclopropyl-4-fluoro-3-(2-methoxy-phenyl)-6-oxo-6,9-dihydro-3H-[1,2, and 3] triazolo [4,5-h] quinoline-7-carboxylic acid] | 44.3 µM and 17.4 µg/mL | 42.1 µM and 16.6 µg/mL | – | > 200 µg/mL | 41.7 ± 6.86 µM | 201 µM and 78.9 µg/mL | 171 µM and 67.2 µg/mL | 124 | 299 ± 11.4 µM | 279 ± 27.4 µM | 110 | – | 16.4 | 6.71 | – | significantly more potent than ciprofloxacin | –
CCc1ccc(-n2nnc3c4c(cc(F)c32)c(=O)c(C(=O)O)cn4C2CC2)cc1 [5d, 9-cyclopropyl-4-fluoro-3-(4-ethyl-phenyl)-6-oxo-6,9-dihydro-3H-[1,2,3] triazolo[4,5-h]quinoline-7-carboxylic acid] | 177 µM and 69.1 µg/mL | 372 µM and 146 µg/mL | – | 161 µM and 63 µg/mL | 163 ± 22.6 µM | 163 µM and 63.8 µg/mL | 124 µM and 48.5 µg/mL | 447 | 1140 ± 82.4 µM | 165 ± 16.1 µM | 64.5 | 1.33 | 63.8 | – | – | significantly more potent than ciprofloxacin | –
CCn1cc(C(=O)O)c(=O)c2cc(F)c(Nc3ccccc3OC)c([N+](=O)[O-])c21 [11a, 1-ethyl-6-fluoro-7-(2-methoxy-phenylamino)-8-nitro-4-oxo-1,4-dihydro-quinoline-3 carboxylic acid] | 67.8 µM and 27.2 µg/mL | 22.8 µM and 9.16 µg/mL | – | 96.8 µM and 8.84 µg/mL | 15.9 ± 1.75 µM | 187 µM and 75.2 µg/mL | 1.02 mM and 411 µg/mL | 41.4 | 103 ± 7.66 µM | 156 ± 11.7 µM | 62.7 | – | 6.38 | 9.83 | – | – | –
CCn1cc(C(=O)O)c(=O)c2cc(F)c(Nc3cccc(OC)c3)c([N+](=O)[O-])c21 [11b, 1-ethyl-6-fluoro-7-(3-methoxy-phenylamino)-8-nitro-4-oxo-1,4-dihydro-quinoline-3-carboxylic acid] | > 200 µg/mL | > 200 µg/mL | – | > 200 µg/mL | 58 ± 9.12 µM | > 200 µg/mL | > 200 µg/mL | 79 | 197 ± 38.3 µM | > 200 µg/mL | – | – | 23.3 | – | – | – | –
CCn1cc(C(=O)O)c(=O)c2cc(F)c(Nc3ccc(OC)cc3OC)c([N+](=O)[O-])c21 [11c, 7-(2,4-dimethoxy-phenylamino)-1-ethyl-6-fluoro-8-nitro-4-oxo-1,4-dihydro-quinoline-3-carboxylic acid] | > 200 µg/mL | 431 µM and 186 µg/mL | – | > 200 µg/mL | > 200 µg/mL | 124 µM and 53.3 µg/mL | > 200 µg/mL | – | > 200 µg/mL | 285 ± 28.7 µM | 123 | – | – | – | – | – | 2.31
CCn1cc(C(=O)O)c(=O)c2cc(F)c(Nc3ccccc3OC)c(N)c21 [12a, 8-amino-1-ethyl-6-fluoro-7-(2-methoxy-phenylamino)-4-oxo-1,4-dihydro-quinoline-3-carboxylic acid] | 125 µM and 46.5 µg/mL | 83.5 µM and 31 µg/mL | – | > 200 µg/mL | 21 ± 0.62 µM | 142 µM and 52.6 µg/mL | 373 µM and 138 µg/mL | 9.45 | 25.4 ± 3.92 µM | 170 ± 15.1 µM | 63.2 | – | 7.79 | 8.10 | – | – | –
CCn1cc(C(=O)O)c(=O)c2cc(F)c(Nc3cccc(OC)c3)c(N)c21 [12b, 8-amino-1-ethyl-6-fluoro-7-(3-methoxy-phenylamino)-4-oxo-1,4-dihydro-quinoline-3-carboxylic acid] | 492 µM and 183 µg/mL | 169 µM and 62.7 µg/mL | – | 163 µM and 60.4 µg/mL | 35.4 ± 3.8 µM | 35.4 µM and 13.2 µg/mL | 112 µM and 41.7 µg/mL | 83.6 | 225 ± 34 µM | 150 ± 6.73 µM | 55.5 | – | 13.2 | 4.22 | – | – | –
O=C(O)c1cn(C2CC2)c2cc(N3CCNCC3)c(F)cc2c1=O [ciprofloxacin, reference compound] | – | – | – | – | – | – | – | – | – | – | – | – | – | – | 1.12 (≈ 371 ng/mL) | – | –

Reference: publication PMC8325119, “A Novel Class of Functionalized Synthetic Fluoroquinolones with Dual Antiproliferative - Antimicrobial Capacities” (Asian Pacific Journal of Cancer Prevention : APJCP, 2021)
